Tested on: T-47D spheroids with HUVEC/MSC, viability
Test: Anticancer human tumor T-47D cell line growth inhibition [PI3K];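 further: spheroids exposed to agents for seven days before reading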;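 on viability, T/C: percent of DMSO vehicle control luminescence so 100% = untreated growth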
Settings: for IC50: curve of first compound; for viability, T/C: stronger effect = lower value
Text: Combinatorial screen of targeted agents with the PI3K inhibitors inavolisib, alpelisib, duvelisib, and copanlisib in multi-cell type tumor spheroids
A high-throughput screen of multi-cell type tumor spheroids was designed to identify active combinations of targeted small molecules and PI3K pathway inhibitors. Complex spheroids include a stromal component modeled by human endothelial cells (HUVEC) and fibroblasts modeled by human mesenchymal stem cells (MSCs). The concentration ranges selected for each drug and investigational agent were based upon clinically achievable concentrations if the clinical Cmax of the agent was known.
Compounds. The drugs and investigational agents: inavolisib (NSC800729), alpelisib (NSC765974), duvelisib (NSC772469), copanlisib (NSC816437), ipatasertib (NSC767898), afuresertib (NSC778305), talazoparib (NSC767125), sapanisertib (NSC764658), selumetinib (NSC741078), tovorafenib (DAY101, NSC766906), vemurafenib (NSC761431), ravoxertinib (NSC781343), sotorasib (NSC818433), MRTX1133 (NSC 836407), abemaciclib (NSC 768073), palbociclib (NSC758247), venetoclax (NSC 766270), SY5609 (NSC837396), enzalutamide (NSC755605), and darolutamide (NSC825331), were obtained from the National Cancer Institute (NCI) Developmental Therapeutics Program Chemical Repository. The FDA-approved anticancer drug set is available from the NCI Developmental Therapeutics Program. […] The stock solutions were prepared in dimethyl sulfoxide (DMSO, Sigma-Aldrich, St. Louis, MO, cat. D2650) at 800-fold the tested concentration and stored at -70 degrees C prior to their use. All drugs and investigational agents were tested over a range starting from a high concentration at or near the clinical Cmax and decreasing in half-log increments. If the clinical Cmax for an agent had not been determined, the highest concentration tested was 10 microM.
Cell Culture. All cells were maintained in an incubator at 37 degrees C and 5% CO2 with 95% humidity. The PDC lines were cultured according to standard operating procedures established by the NCI PDMR (https://pdmr.cancer.gov/sops/default.htm). All PDCs were thawed and cultured in Matrigel-coated flasks prepared with a working solution of 1X Ham's F-12 nutrient mix, without supplementation (Invitrogen, Waltham, MA, cat. 11765054), 100 U/mL penicillin-streptomycin (Invitrogen, cat. 15140122), and 2.5% Matrigel (Corning Inc., Corning, NY, cat. 354248) for the first three passages. The 354836-022-R-J1-PDC, 475296-252-R-J1-PDC, and 997726-040-R-J2-PDC lines were cultured in 6A media, which includes advanced DMEM/F-12 (Thermo Fisher Scientific, cat. 12634028), 10 mM HEPES (Thermo Fisher Scientific, cat. 15630080), 1X GlutaMAX supplement (Thermo Fisher Scientific, cat. 35050061), 0.1 mg/mL primocin (InvivoGen, San Diego, CA, cat. ant-pm-2), 10% defined fetal bovine serum, heat inactivated (HyClone Laboratories Inc., Logan, UT, cat. SH30070.03HI), 50% L-WRN conditioned media (ATCC, cat. CRL-3276), 1.25 mM N-Acetyl-L-cysteine (Sigma-Aldrich, cat. A9165), 10 mM nicotinamide (Sigma-Aldrich, cat. N0636), 1X B-27 supplement (Thermo Fisher Scientific, cat. 17504044), 1X N-2 supplement (Thermo Fisher Scientific, cat. 17502048), and 10 microM Y-27632 dihydrochloride (Tocris Bioscience, Bristol, United Kingdom, cat. 1254). The 624824-186-R-J2-PDC line was cultured in 6C/Colon 1B media, which includes all 6A media components plus 50 ng/mL human EGF recombinant protein (Thermo Fisher Scientific, cat. PHG0311). […]

[1] = second compound 0.00316 µM, first compound 0.000316 µM
[2] = second compound 0.00316 µM, first compound 0.001 µM
[3] = second compound 0.00316 µM, first compound 0.00316 µM
[4] = second compound 0.00316 µM, first compound 0.01 µM
[5] = second compound 0.00316 µM, first compound 0.0316 µM
[6] = second compound 0.00316 µM, first compound 0.1 µM
[7] = second compound 0.01 µM, first compound 0.000316 µM
[8] = second compound 0.01 µM, first compound 0.001 µM
[9] = second compound 0.01 µM, first compound 0.00316 µM
[10] = second compound 0.01 µM, first compound 0.01 µM
[11] = second compound 0.01 µM, first compound 0.0316 µM
[12] = second compound 0.01 µM, first compound 0.1 µM
[13] = second compound 0.0316 µM, first compound 0.000316 µM
[14] = second compound 0.0316 µM, first compound 0.001 µM
[15] = second compound 0.0316 µM, first compound 0.00316 µM
[16] = second compound 0.0316 µM, first compound 0.01 µM
[17] = second compound 0.0316 µM, first compound 0.0316 µM
[18] = second compound 0.0316 µM, first compound 0.1 µM
[19] = second compound 0.1 µM, first compound 0.000316 µM
[20] = second compound 0.1 µM, first compound 0.001 µM
[21] = second compound 0.1 µM, first compound 0.00316 µM
[22] = second compound 0.1 µM, first compound 0.01 µM
[23] = second compound 0.1 µM, first compound 0.0316 µM
[24] = second compound 0.1 µM, first compound 0.1 µM
[25] = second compound 0.316 µM, first compound 0.000316 µM
[26] = second compound 0.316 µM, first compound 0.001 µM
[27] = second compound 0.316 µM, first compound 0.00316 µM
[28] = second compound 0.316 µM, first compound 0.01 µM
[29] = second compound 0.316 µM, first compound 0.0316 µM
[30] = second compound 0.316 µM, first compound 0.1 µM
[31] = second compound 1 µM, first compound 0.000316 µM
[32] = second compound 1 µM, first compound 0.001 µM
[33] = second compound 1 µM, first compound 0.00316 µM
[34] = second compound 1 µM, first compound 0.01 µM
[35] = second compound 1 µM, first compound 0.0316 µM
[36] = second compound 1 µM, first compound 0.1 µM

`CC(=O)c1c(C)c2cnc(Nc3ccc(N4CCNCC4)cn3)nc2n(C2CCCC2)c1=O` + CC(Nc1ccc2c(c1)OCCn1cc(N3C(=O)OCC3C(F)F)nc1-2)C(N)=O showed an IC50 (second compound 0.00316 µM) of over 100 nM, an IC50 (second compound 0.01 µM) of over 100 nM and an IC50 (second compound 0.0316 µM) of over 100 nM. For the same compound, the IC50 (second compound 0.1 µM) was over 100 nM, the IC50 (second compound 0.316 µM) was over 100 nM and the IC50 (second compound 1 µM) was under 0.316 nM. It also gave a viability, T/C [1] of 92.1%, a viability, T/C [2] of 90.5% and a viability, T/C [3] of 82.9%. It also gave a viability, T/C [4] of 95.3%, a viability, T/C [5] of 64.4% and a viability, T/C [6] of 86%. It also gave a viability, T/C [7] of 83.8%, a viability, T/C [8] of 121% and a viability, T/C [9] of 71.9%. The viability, T/C [10] was 75.3%, the viability, T/C [11] was 78.6% and the viability, T/C [12] was 69.8%. For the same compound, the viability, T/C [13] was 70.1%, the viability, T/C [14] was 85.8% and the viability, T/C [15] was 76.1%. For the same compound, the viability, T/C [16] was 83.6%, the viability, T/C [17] was 69.8% and the viability, T/C [18] was 67.1%. It also gave a viability, T/C [19] of 84.7%, a viability, T/C [20] of 89.8% and a viability, T/C [21] of 76%. For the same compound, the viability, T/C [22] was 65.7%, the viability, T/C [23] was 77% and the viability, T/C [24] was 54.5%. For the same compound, the viability, T/C [25] was 59.4%, the viability, T/C [26] was 65.9% and the viability, T/C [27] was 48.9%. It also gave a viability, T/C [28] of 56.7%, a viability, T/C [29] of 43.4% and a viability, T/C [30] of 60.1%. For the same compound, the viability, T/C [31] was 39.9%, the viability, T/C [32] was 55.6% and the viability, T/C [33] was 49.5%. The viability, T/C [34] was 41%, the viability, T/C [35] was 38.9% and the viability, T/C [36] was 32.6%.

In the case of `CC(C)n1nc(-c2ccc3oc(N)nc3c2)c2c(N)ncnc21` + CC(Nc1ccc2c(c1)OCCn1cc(N3C(=O)OCC3C(F)F)nc1-2)C(N)=O, the IC50 (second compound 0.00316 µM) is reported as 69.5 nM, the IC50 (second compound 0.01 µM) is reported as 59.6 nM and the IC50 (second compound 0.0316 µM) is reported as 51.4 nM. For the same compound, the IC50 (second compound 0.1 µM) was 28.4 nM, the IC50 (second compound 0.316 µM) was 5.64 nM and the IC50 (second compound 1 µM) was 2.28 nM. It also gave a viability, T/C [1] of 112%, a viability, T/C [2] of 98% and a viability, T/C [3] of 110%. The viability, T/C [4] was 91.2%, the viability, T/C [5] was 88.6% and the viability, T/C [6] was 33%. For the same compound, the viability, T/C [7] was 89.2%, the viability, T/C [8] was 97.4% and the viability, T/C [9] was 94.4%. For the same compound, the viability, T/C [10] was 83.2%, the viability, T/C [11] was 72.5% and the viability, T/C [12] was 32.2%. For the same compound, the viability, T/C [13] was 94.6%, the viability, T/C [14] was 101% and the viability, T/C [15] was 84.5%. For the same compound, the viability, T/C [16] was 82.4%, the viability, T/C [17] was 70.5% and the viability, T/C [18] was 25.5%. It also gave a viability, T/C [19] of 76%, a viability, T/C [20] of 90.8% and a viability, T/C [21] of 89.9%. For the same compound, the viability, T/C [22] was 71.1%, the viability, T/C [23] was 48.5% and the viability, T/C [24] was 17%. For the same compound, the viability, T/C [25] was 68.2%, the viability, T/C [26] was 65.1% and the viability, T/C [27] was 56.5%. The viability, T/C [28] was 41.8%, the viability, T/C [29] was 29.9% and the viability, T/C [30] was 5.87%. It also gave a viability, T/C [31] of 57.6%, a viability, T/C [32] of 56.2% and a viability, T/C [33] of 47.9%. For the same compound, the viability, T/C [34] was 34.4%, the viability, T/C [35] was 18.8% and the viability, T/C [36] was 3.47%.

For `CCCS(=O)(=O)Nc1ccc(F)c(C(=O)c2c[nH]c3ncc(-c4ccc(Cl)cc4)cc23)c1F` + CC(Nc1ccc2c(c1)OCCn1cc(N3C(=O)OCC3C(F)F)nc1-2)C(N)=O, the IC50 (second compound 0.00316 µM) was 9160 nM, the IC50 (second compound 0.01 µM) was 9580 nM and the IC50 (second compound 0.0316 µM) was 8530 nM. For the same compound, the IC50 (second compound 0.1 µM) was 6950 nM, the IC50 (second compound 0.316 µM) was 5040 nM and the IC50 (second compound 1 µM) was 3210 nM. For the same compound, the viability, T/C [5] was 99.3%, the viability, T/C [6] was 87.8% and the viability, T/C (second compound 0.00316 µM, first compound 0.316 µM) was 108%. It also gave a viability, T/C (second compound 0.00316 µM, first compound 1 µM) of 79.2%, a viability, T/C (second compound 0.00316 µM, first compound 3.16 µM) of 103% and a viability, T/C (second compound 0.00316 µM, first compound 10 µM) of 46.3%. The viability, T/C [11] was 99%, the viability, T/C [12] was 89.1% and the viability, T/C (second compound 0.01 µM, first compound 0.316 µM) was 98.5%. It also gave a viability, T/C (second compound 0.01 µM, first compound 1 µM) of 70.7%, a viability, T/C (second compound 0.01 µM, first compound 3.16 µM) of 87.8% and a viability, T/C (second compound 0.01 µM, first compound 10 µM) of 47%. It also gave a viability, T/C [17] of 80.3%, a viability, T/C [18] of 90.2% and a viability, T/C (second compound 0.0316 µM, first compound 0.316 µM) of 102%. The viability, T/C (second compound 0.0316 µM, first compound 1 µM) was 97.3%, the viability, T/C (second compound 0.0316 µM, first compound 3.16 µM) was 98.7% and the viability, T/C (second compound 0.0316 µM, first compound 10 µM) was 43%. The viability, T/C [23] was 83.2%, the viability, T/C [24] was 82.8% and the viability, T/C (second compound 0.1 µM, first compound 0.316 µM) was 97.7%. The viability, T/C (second compound 0.1 µM, first compound 1 µM) was 91.3%, the viability, T/C (second compound 0.1 µM, first compound 3.16 µM) was 74.2% and the viability, T/C (second compound 0.1 µM, first compound 10 µM) was 38.9%. For the same compound, the viability, T/C [29] was 69.3%, the viability, T/C [30] was 79.3% and the viability, T/C (second compound 0.316 µM, first compound 0.316 µM) was 66.9%. The viability, T/C (second compound 0.316 µM, first compound 1 µM) was 70.9%, the viability, T/C (second compound 0.316 µM, first compound 3.16 µM) was 55.8% and the viability, T/C (second compound 0.316 µM, first compound 10 µM) was 41.4%. It also gave a viability, T/C [35] of 48.5%, a viability, T/C [36] of 55.1% and a viability, T/C (second compound 1 µM, first compound 0.316 µM) of 69.4%. It also gave a viability, T/C (second compound 1 µM, first compound 1 µM) of 51.5%, a viability, T/C (second compound 1 µM, first compound 3.16 µM) of 49.1% and a viability, T/C (second compound 1 µM, first compound 10 µM) of 35.5%.
